From ChEMBL document CHEMBL1149382 (J Med Chem, 2006)
Values after ≈ are worked out from the molar mass of the structure shown. Active and inactive are the calls of the source. No cut-off for these calls is given here.

Tests used:
[1] = tested on: Trypanosoma cruzi; experiment: Ability to block ergosterol biosynthesis in Trypanosoma cruzi; format: functional, organism-based
[2] = tested on: Trypanosoma cruzi; experiment: Antiprotozoal activity against Trypanosoma cruzi epimastigotes; format: functional, organism-based
[3] = tested on: Trypanosoma cruzi; experiment: Antiprotozoal activity against Trypanosoma cruzi amastigotes; format: functional, organism-based
[4] = tested on: Trypanosoma cruzi; experiment: Disruption of calcium homeostasis in Trypanosoma cruzi; format: functional, organism-based
[5] = molecular target: lanosterol synthase / oxidosqualene cyclase (Homo sapiens) (UniProt P48449); experiment: Inhibitory activity against oxidosqualene cyclase
[6] = molecular target: T1, Farnesyl diphosphate synthase (Trypanosoma cruzi) (UniProt Q8WS26); experiment: Inhibitory activity against recombinant farnesyl diphosphate synthase at 50 uM
T1 sequence (whole entry): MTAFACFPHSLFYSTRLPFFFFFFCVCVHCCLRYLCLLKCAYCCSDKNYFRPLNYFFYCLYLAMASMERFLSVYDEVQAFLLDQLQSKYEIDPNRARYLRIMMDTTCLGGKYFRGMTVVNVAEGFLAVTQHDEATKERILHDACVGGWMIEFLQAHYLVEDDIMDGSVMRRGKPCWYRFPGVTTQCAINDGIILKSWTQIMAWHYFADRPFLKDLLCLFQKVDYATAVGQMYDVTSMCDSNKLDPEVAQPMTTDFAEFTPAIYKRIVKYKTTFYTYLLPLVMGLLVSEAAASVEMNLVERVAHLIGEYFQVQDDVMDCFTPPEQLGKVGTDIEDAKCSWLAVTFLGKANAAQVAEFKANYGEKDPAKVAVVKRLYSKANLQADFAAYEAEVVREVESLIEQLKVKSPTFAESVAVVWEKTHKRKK

Chain of lanosterol synthase / oxidosqualene cyclase (Homo sapiens) (P48449 whole entry, looked up): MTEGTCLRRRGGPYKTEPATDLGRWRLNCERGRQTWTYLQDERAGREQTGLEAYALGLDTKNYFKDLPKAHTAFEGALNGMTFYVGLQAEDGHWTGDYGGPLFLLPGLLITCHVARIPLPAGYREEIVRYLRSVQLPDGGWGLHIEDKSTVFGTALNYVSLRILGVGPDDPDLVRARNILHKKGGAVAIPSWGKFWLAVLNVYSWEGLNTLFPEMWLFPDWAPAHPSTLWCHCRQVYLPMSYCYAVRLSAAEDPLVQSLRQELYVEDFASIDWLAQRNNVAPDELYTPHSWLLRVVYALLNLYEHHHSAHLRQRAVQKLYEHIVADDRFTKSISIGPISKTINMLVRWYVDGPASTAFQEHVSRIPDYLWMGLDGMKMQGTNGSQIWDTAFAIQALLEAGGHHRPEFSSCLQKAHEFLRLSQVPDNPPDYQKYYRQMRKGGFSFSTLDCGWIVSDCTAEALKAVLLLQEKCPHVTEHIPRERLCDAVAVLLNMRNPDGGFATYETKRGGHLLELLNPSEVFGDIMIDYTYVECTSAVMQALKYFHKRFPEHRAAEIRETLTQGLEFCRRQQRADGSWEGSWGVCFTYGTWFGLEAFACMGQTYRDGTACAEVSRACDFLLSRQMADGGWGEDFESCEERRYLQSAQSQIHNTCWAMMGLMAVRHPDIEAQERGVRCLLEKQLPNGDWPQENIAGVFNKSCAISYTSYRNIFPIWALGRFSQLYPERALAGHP

| Compound | Activity [1] | MIC [2] [µM] | MIC [3] [µM] | Activity [4] | IC50 [5] | inhibition [6] | IC50 [2] [nM] | IC50 [3] [nM] |
| --- | --- | --- | --- | --- | --- | --- | --- | --- |
| CCCCc1oc2ccccc2c1C(=O)c1cc(I)c(OCCN(CC)CC)c(I)c1 [AMIODARONE] | Active | 20 (≈ 12.9 µg/mL) | 8 (≈ 5.16 µg/mL) | Active | Active | inactive |  |  |
| CC[C@@H]([C@H](C)O)n1ncn(-c2ccc(N3CCN(c4ccc(OC[C@@H]5CO[C@@](Cn6cncn6)(c6ccc(F)cc6F)C5)cc4)CC3)cc2)c1=O [POSACONAZOLE] |  | 0.02 (≈ 0.014 µg/mL) | 0.003 (≈ 0.0021 µg/mL) | Active |  |  | 14 | 0.25 |
